# A melting point compilation (Tetko et al.; mined from patent text by program, amines drawn as free bases though some values may be those of a salt)
row,Structure (SMILES),melting point
1,NC(=O)N1Cc2c(-c3ccc(F)cc3)ncn2-c2ccccc21,222 to 223 °C
2,CC(=O)C1CCC2C3CC(C)C4CC(O)CCC4(C)C3C(O)CC12C (stereo not given),211 to 213 °C
3,Cn1cc(Sc2ccccc2)c(=O)c(-c2cccc(C(F)(F)F)c2)c1,164 to 165 °C
4,COC(=O)[C@@H]1Cc2ccccc2N1c1ccc(Cl)nn1,133 to 134 °C
5,Cc1ccc(C(O)c2ccc3noc(-c4cccc(Cl)c4)c3c2)cc1 (stereo not given),225 °C
6,COc1ccc2nc(SCc3nccc(OCC(F)(F)F)c3OC)[nH]c2c1,149 to 150 °C
7,CC(C)C(NC(=O)N(C)Cc1ccccn1)C(=O)NC(Cc1ccccc1)C(O)C(Cc1ccccc1)NC(=O)C(NC(=O)N(C)Cc1ccccn1)C(C)C (stereo not given),70 to 72 °C
8,CSc1ccc(-c2csc3ccc(C(=O)NN)cc23)cc1,195 to 196 °C
9,CCC(C)c1nn(-c2ccc(C(F)(F)F)cn2)cc1CCCO (stereo not given),72 to 73 °C
10,CCN(CC)CCOc1ccc(C(O)(CC)c2ccccc2)cc1 (stereo not given),113 °C
11,CC(C)c1c(CO)c(-c2ccc(F)cc2)n2ccccc12,94 to 95 °C
12,CN(C)Cc1ccc2cc(NC(=O)c3ccc(-c4ccc(F)cc4)cc3)ccc2n1,205 to 208 °C
13,CCCn1c(=O)nc(Sc2ccc(Cl)cc2)sc1=S,151 to 152 °C
14,CC(=O)c1nnc(-c2ccc3occ(-c4cccc(OC(F)(F)F)c4)c3c2)o1,64 to 65 °C
15,CSC1=NC(C)(C)CCC(C)(C)N1,200 to 205 °C
16,COc1ccc(-c2nc(S(=O)(=O)c3ccccc3)[nH]c2-c2ccc(OC)cc2)cc1,106 °C
17,COc1ccc(-c2nc(-c3ccc[nH]3)n(CCCBr)c2-c2ccc(OC)cc2)cc1,97 °C
18,COc1ccc(C=Cc2ccc(CBr)c(Cl)c2)c(Cl)c1,106 to 108 °C
19,CC(O)CNc1cc(Cl)cc(NCC(C)O)c1[N+](=O)[O-] (stereo not given),170 °C
20,O=C(O)c1ccc(C(=O)/C=C/c2ccc(-c3cncnc3)cc2)cc1,> 260 °C
21,O=C(CCc1ccccc1)Cn1ccnc1,172 to 173 °C

row,Structure (SMILES),melting point
1,O=C1c2ccccc2C(=O)N1CCCCCSc1ccccc1,87 to 88 °C
2,CCC(=O)Nc1cccc(-c2ccc3nnc(C)n3n2)c1,265 to 268 °C
3,Cc1nc(-n2ccc(O)cc2=O)sc1C(=O)NCCc1ccc(F)cc1,225 to 227 °C
4,CC(=O)C1=Cc2ccccc2NN=C1,66 to 68 °C
5,N[C@@H](CC(C(=O)O)=C1CCC1)C(=O)O,212 to 214 °C
6,O=c1oc2cc(O)c(O)cc2c(O)c1C1=CCOc2oc3ccccc3c(=O)c21,258 to 260 °C
7,O=C(O)c1ccc(OCCCc2ccc(OCc3ccccc3)cc2)cc1,128 to 130 °C
8,Cc1nc2n(C)nc(C)n2c(=O)c1CCCl,140 °C
9,O=C(N[C@H](Cc1ccc(C(F)(F)F)cc1)[C@@H](O)c1cccc(Cl)n1)c1ccc(F)c2ccccc12 (racemic),225 to 226 °C
10,COc1ccc2c(c1)C(=O)C(C)(C)C(=O)N2,169 to 170 °C
11,Nc1nc(NCc2ccccc2)nc(C(F)(F)F)n1,183 to 185 °C
12,c1ccc(Cn2cncc2-c2cnc(-c3ccccc3)nc2)cc1,140 °C
13,CCCCCCOc1ccc(-c2nc(-c3ccc(OCCCCCC)cc3O)nc(-c3c(C)cc(C)cc3C)n2)c(O)c1,140 to 142 °C
14,Cc1cc(NCCNCC(O)COc2ccccc2)n2ncnc2n1 (stereo not given),126 to 127 °C
15,CC1(C)CCC(C)(C)c2cc3cc(-c4c[nH]c(C(=O)O)c4)ccc3cc21,234 to 238 °C
16,O=C(NC(Cc1ccc(OCc2ccccc2)cc1)C(=O)O)c1cn2cc(-c3ccc(Cl)cc3)cnc2n1 (stereo not given),252 to 253 °C
17,NC(=O)c1nccc(Oc2ccc(N)cc2F)c1Cl,217 to 218 °C
18,O=c1cc(-c2ccoc2)c2ccc(Sc3cc(F)cc(-c4ccccc4)c3)cc2o1,122 to 124 °C
19,BrCCc1c[nH]c2ccccc12,57 to 60 °C
20,Cc1cnc2c(NC(=O)c3ccccc3[N+](=O)[O-])cccc2c1-n1ccnc1,199 to 204 °C
21,CCCC(CC)c1nc(C)nc2c1c(C)c(C)n2-c1c(C)cc(C)cc1C (stereo not given),100 to 102 °C

# The remaining lines, values ahead:
row,melting point,Structure (SMILES)
1,233 to 234 °C,CCOc1cccc(NC(=O)N2CCc3cc(SC)c(C(F)(F)F)cc32)c1
2,105 to 106 °C,CCOC(=O)c1cccn2c(C(=O)OCC)c(Cl)nc12
3,64 to 65.5 °C,CCOC(=O)C(CCC#N)(C(=O)OCC)c1ncc([N+](=O)[O-])cc1C
4,166 °C,CC(=O)OC1CSC(Oc2ccc3ncsc3c2)C(OC(C)=O)C1OC(C)=O (stereo not given)
5,178 to 180 °C,COc1ccc(OC)c2c1CC(O)(C(=O)O)CC21SCCS1 (stereo not given)
6,112 to 120 °C,CCC(C1CCCC1)C(O)(c1ccc(O)cc1)c1ccc(OCCN(C)C)cc1 (stereo not given)
7,214 °C,CCN1CCN(CCN2CC[C@H](NC(=O)c3cc(Cl)c(N)cc3OC)[C@H](OC(=O)N3CCCC3)C2)C1=O (relative stereo)
8,113 to 115 °C,Cc1cc(SC2=C(O)CC(CCc3ccc(O)cc3)(C3CCCC3)OC2=O)c(C(C)(C)C)cc1OCCO (stereo not given)
9,174 to 176 °C,CCCCc1c(/C=C/C(=O)O)cc(OC)c2ccc(OC)cc12
10,121 to 123 °C,CNC(=S)n1nc(Oc2c(Cl)cc(C(F)(F)F)cc2Cl)cc1C
11,98 °C,CN(Cc1ccccc1)c1ncnc2c(N3CCOCC3)nc(N3CCC(N(C)C)CC3)nc12
12,132 °C,CC(C)CCCC(=O)OC1c2ccccc2C(=O)N1c1ccc2ccc(Cl)nc2n1 (stereo not given)
13,202 °C,Cc1nc2nc(NCCN3CCC(Nc4nc5ccccc5n4Cc4ccc(F)cc4)CC3)ccc2[nH]1
14,94 to 96 °C,O=C1c2c(-c3ccccc3F)noc2CCC1CCCN1CCN(c2ccccn2)CC1 (stereo not given)
15,121 to 123 °C,CO/N=C(/C(N)=O)c1ccccc1COC(C)=O
16,174 to 178 °C,CC(C)(C)OC(=O)N1CCn2c(c(I)c(C#N)c2-c2ccccc2)C1
17,279 to 280 °C,COc1cc(OC)c2c(=O)[nH]c(-c3ccc(N4C[C@@H](C)N(C(C)=O)[C@@H](C)C4)cc3)nc2n1
18,124 to 126 °C,COc1ccc(N2CCCn3c2nc2c(Cl)ccc(C(OCC(F)F)C4CC4)c23)c(C)n1 (stereo not given)
19,130 to 132 °C,C=CCOC(=O)c1ccc(OC(=O)c2ccc(O[Si](C)(C)C(C)(C)C)c(C34CC5CC(CC(C5)C3)C4)c2)nc1
20,135 to 136 °C,COCc1ccc(Oc2cc(OC)c3[nH]c(C4=NCC(CC(N)=O)S4)cc3c2)cn1 (stereo not given)
21,125 to 130 °C,Cc1c(-c2ccc(O)cc2)n(Cc2ccc(OCCCN3CCCCC3)cc2)c2ccc(O)cc12
22,162 to 164 °C,Cc1ccc2ncc(C(=O)NC3CCCC3)c(=O)n2c1
23,161 to 163 °C,CC(=O)N1CCc2c(c3cccc4c3n2CCS4)C1
24,265 to 270 °C,Cc1c(C(=O)O)nc2c(=O)[nH]c3cc(C(F)(F)F)c(-n4cccc4)cc3n12
25,168 to 170 °C,CN(C1=CC(=O)C(=O)c2ccccc21)C1CCCCC1
26,99 to 102 °C,O=C(O)Cc1cccc(Oc2cccc(Cl)c2)c1O
27,198 to 202 °C,CC=CCNc1cc(C(=O)O)cc(S(N)(=O)=O)c1Oc1cccc(NC(C)=O)c1
28,85 to 88 °C,CCCc1cc(F)c2oc(Cc3ccc(OC)cc3)c(C)c2c1OC(=O)OCC
